In publication PMC9147171, “Pharmacokinetic/Pharmacodynamic Evaluation of a New Purine-2,6-Dione Derivative in Rodents with Experimental Autoimmune Diseases” (Pharmaceutics, 2022):

Experiments:
hrPDE1B = target: T1, hrPDE1B (Homo sapiens, UniProt Q01064); test: PDE-Glo catalytic activity assay, PDE1B; format: biochemical
T1 construct: purchased SignalChem, Richmond, Canada
Procedure: The inhibitory activity of compound 34 against hrPDE1B and hrPDE3A (SignalChem, Richmond, Canada) was assessed using the PDE-Glo™ catalytic activity assay (Promega Corporation, Madison, WI, USA). It was performed on 384-well plates according to manufacturer’s instructions with slight modifications. Solutions of both PDEs were prepared by diluting their stock solutions in the PDE-Glo™ Reaction Buffer and aliquots of 6.5 μL were added to the wells. A stock solution of the tested compound was prepared in DMSO at a concentration of 10 mM and serially diluted with the same solvent. The obtained solutions were further diluted with PDE-Glo™ Reaction Buffer (1:5, v/v) and aliquots of 1 μL were transferred to the respective wells. Then, the mixture was incubated for 10 min at 30 °C on a heated plate shaker (Grant Instruments, Cambridge, United Kingdom). The reaction was started by the addition of 2.5 μL of a 0.2 μM cAMP solution to each well and the plate was incubated for 10 min at 30 °C on a heated plate shaker. Moreover, for each series, respective control reactions were performed: no-substrate, no-enzyme negative control reactions; no-enzyme positive control reactions containing substrate; and no-inhibitor positive control reactions containing both the substrate and PDE. After incubation, the reaction was stopped by adding 2.5 μL of the PDE-Glo™ Termination Buffer. A volume of 2.5 μL of the PDE-Glo™ Detection Buffer was transferred to each well and the plate was incubated for 20 min at room temperature. Finally, an aliquot of 10 μL of the PDE-Glo Kinase® Reagent was added to the wells. The plate was incubated for 10 min at room temperature and luminescence was measured with a luminometer (BMG Labtech, Ortenberg, Germany). For each inhibitor concentration, four independent measurements were performed. The resulting data were expressed as percent of an uninhibited control and plotted against the inhibitor concentration. The IC50 values were estimated by nonlinear regression using ADAPT5 software (BMSR, Los Angeles, CA, USA).

[1] = test system: collagen-induced arthritis (CIA) in rats; test: Collagen-induced arthritis (CIA) in rats, PK/PD arthritis progression model; format: in vivo, female Lewis rats
Procedure: Female Lewis rats were subcutaneously injected at the base of the tail with the emulsion prepared according to the protocol supplied by Chondrex, Inc. (Redmond, WA, USA) at days 0 and 7 of the experiment. To obtain the emulsion, porcine collagen type II (Chondrex, Inc.) (2 mg/mL) in 0.05 M acetic acid was emulsified with incomplete Freund’s adjuvant (Sigma-Aldrich, St. Louis, MO, USA) using a homogenizer with a small blade (LabGen 125, Cole-Parmer, Vernon Hills, IL, USA). On day 20, the animals that developed symptoms of arthritis, i.e., paw swelling above 150% of day 0, were randomly divided into two groups: the control group receiving vehicle alone (n = 6) and the study group treated with the investigated compound at a dose of 20 mg·kg^−1, IP once daily for 21 days (n = 6). Relative paw edema of arthritic rats was measured using a digital caliper according to the procedure described by Earp et al. up to 40 days after the first immunization and then the animals were sacrificed. In addition, the body weight of animals was monitored. After randomization on day 20, using the Mann–Whitney U test, it was verified that there is no significant difference in paw size between the groups.
A previously developed PK/PD model of arthritis progression in rats was utilized in this study (Figure 2). The model was described in detail in our previous publication. Originally, this model was used to assess and compare the effects of a PDE4-selective inhibitor rolipram and two non-selective PDE inhibitors, namely GRMS-55 and lisofylline in CIA in female Lewis rats.
Briefly, the model assumes that PDE inhibitors act by suppressing the production of a precursor of arthritis progression. This is in line with the actual mechanism of anti-inflammatory action of PDE inhibitors that exert their effects by inhibiting the transcription of pro-inflammatory mediators, which participate in the arthritis development. […] Therefore, it was feasible to compare the potency of compound 34 and other PDE inhibitors that were evaluated in our previous study. […]

T1 sequence (Q01064 whole entry): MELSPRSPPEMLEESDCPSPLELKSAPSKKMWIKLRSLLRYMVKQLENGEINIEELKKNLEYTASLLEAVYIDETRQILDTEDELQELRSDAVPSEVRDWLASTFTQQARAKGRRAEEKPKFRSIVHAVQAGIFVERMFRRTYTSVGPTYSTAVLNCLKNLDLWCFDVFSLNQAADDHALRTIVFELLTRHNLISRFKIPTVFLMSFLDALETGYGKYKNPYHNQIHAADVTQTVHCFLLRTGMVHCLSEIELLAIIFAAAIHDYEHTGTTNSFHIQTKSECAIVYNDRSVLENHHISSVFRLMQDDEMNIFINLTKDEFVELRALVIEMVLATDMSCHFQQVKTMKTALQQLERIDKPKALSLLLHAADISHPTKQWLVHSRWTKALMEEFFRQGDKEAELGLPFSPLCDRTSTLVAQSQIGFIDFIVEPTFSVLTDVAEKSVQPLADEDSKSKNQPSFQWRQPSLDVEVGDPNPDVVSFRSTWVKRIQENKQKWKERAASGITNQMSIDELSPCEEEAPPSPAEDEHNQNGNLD

IC50 (hrPDE1B; human recombinant PDE1B, CV% in brackets, read-out: IC50 (µM) Against PDE Isoform (CV%) PDE1B): 0.21 µM | times more potent than GRMS-55 in inhibiting PDE1B (hrPDE1B; ratio of IC50 values, vs GRMS-55): 12 times | inhibitory activity against PDE1B, times higher than that of vinpocetine (hrPDE1B; ratio of IC50 values, vs vinpocetine): around 36 times | IC50_Paw in suppressing paw edema, times lower than that for rolipram ([1]; PK/PD model, rolipram value from ref 28): 10 times | IC50_Paw, times lower than that for GRMS-55 ([1]; same PK/PD model, GRMS-55 value from ref 28): around 260 times
Compound: Cn1c(=O)c2c(nc(NCCc3ccccc3)n2CCCC(=O)NN=Cc2ccc(O)c(O)c2O)n(C)c1=O [Compound 34, 4-(1,3-dimethyl-2,6-dioxo-8-(phenethylamino)-2,3,6,7-tetrahydro-1H-purin-7-yl)-N′-(2,3,4-trihydroxybenzylidene)butanehydrazide]
Relative body weight, experimental vs control group ([1]; 20 mg·kg^−1 IP once daily for 21 days): not significantly different
